This test concerns the target human PI3Kalpha p110 catalytic subunit (Rat-1 cells) (Homo sapiens (Human), UniProt P42336). Briefly: Cellular assay PI3Kalpha, p-Akt(S473) SureFire in Rat-1_PI3Kalpha cells. Type of test: cell-based. Conditions: p-AKT(Ser473), 1 h treatment. From the text: AlphaScreen (Amplified Luminescent Proximity Homogeneous Assay, ALPHA, Perkin Elmer) is a non-radioactive bead-based proximity assay technology to study biomolecular interactions in a homogenous microtiter plate format. The brand name SureFire denotes AlphaScreen assays that are adapted to quantify the phosphorylation of endogenous cellular proteins in cell lysates, by using matched antibody pairs, which consist of an anti-phospho-kinase and an anti-kinase antibody. The assay allows characterization of kinase signaling in cells as well as measurement of kinase inhibitor effects. The AlphaScreen technology provides several advantages over standard assay techniques such as ELISA, as it avoids time-consuming washing procedures and reduces plate handling. Furthermore, it is miniaturizable at least to a 384-well format and provides sensitivity down to the femtomolar range, dependent on the affinity of the antibodies included in the individual AlphaScreen SureFire assay kit. High sensitivity is reached by an intrinsic amplification mechanism, which involves production of singlet oxygen molecules. SureFire assay kits are commercially available for specific targets and include pairs of validated antibodies (PerkinElmer). […]

Sequence of human PI3Kalpha p110 catalytic subunit (Rat-1 cells) (P42336 whole entry): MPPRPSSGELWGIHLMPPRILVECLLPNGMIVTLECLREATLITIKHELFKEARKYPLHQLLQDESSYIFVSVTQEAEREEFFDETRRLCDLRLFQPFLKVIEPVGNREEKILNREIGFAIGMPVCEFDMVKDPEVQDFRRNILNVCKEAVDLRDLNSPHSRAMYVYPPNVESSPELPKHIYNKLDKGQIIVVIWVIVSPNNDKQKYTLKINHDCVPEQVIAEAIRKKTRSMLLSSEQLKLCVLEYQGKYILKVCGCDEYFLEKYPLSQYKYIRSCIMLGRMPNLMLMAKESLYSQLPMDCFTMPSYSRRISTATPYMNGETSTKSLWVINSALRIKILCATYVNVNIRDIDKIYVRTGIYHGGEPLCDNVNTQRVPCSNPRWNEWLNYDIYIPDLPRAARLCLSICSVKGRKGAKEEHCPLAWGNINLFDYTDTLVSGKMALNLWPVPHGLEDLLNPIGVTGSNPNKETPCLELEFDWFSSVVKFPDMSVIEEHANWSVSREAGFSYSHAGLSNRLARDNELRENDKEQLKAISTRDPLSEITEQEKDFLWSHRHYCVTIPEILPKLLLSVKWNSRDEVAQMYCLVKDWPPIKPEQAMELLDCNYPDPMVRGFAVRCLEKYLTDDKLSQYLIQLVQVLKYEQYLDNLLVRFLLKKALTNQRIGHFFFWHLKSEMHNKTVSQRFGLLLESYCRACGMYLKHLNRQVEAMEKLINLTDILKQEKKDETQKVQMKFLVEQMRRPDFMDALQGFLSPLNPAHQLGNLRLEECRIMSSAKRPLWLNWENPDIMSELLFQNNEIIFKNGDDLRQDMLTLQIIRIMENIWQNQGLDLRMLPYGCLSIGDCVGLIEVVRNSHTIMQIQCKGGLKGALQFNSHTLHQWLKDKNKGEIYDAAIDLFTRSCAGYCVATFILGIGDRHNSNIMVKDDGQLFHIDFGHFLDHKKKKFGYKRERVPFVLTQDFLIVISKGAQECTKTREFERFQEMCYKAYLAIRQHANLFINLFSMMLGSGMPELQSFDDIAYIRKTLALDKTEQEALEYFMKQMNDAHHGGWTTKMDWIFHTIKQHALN
Sequence of human PI3Kalpha p110 catalytic subunit (Rat-1 cells) (Q63787 whole entry partner): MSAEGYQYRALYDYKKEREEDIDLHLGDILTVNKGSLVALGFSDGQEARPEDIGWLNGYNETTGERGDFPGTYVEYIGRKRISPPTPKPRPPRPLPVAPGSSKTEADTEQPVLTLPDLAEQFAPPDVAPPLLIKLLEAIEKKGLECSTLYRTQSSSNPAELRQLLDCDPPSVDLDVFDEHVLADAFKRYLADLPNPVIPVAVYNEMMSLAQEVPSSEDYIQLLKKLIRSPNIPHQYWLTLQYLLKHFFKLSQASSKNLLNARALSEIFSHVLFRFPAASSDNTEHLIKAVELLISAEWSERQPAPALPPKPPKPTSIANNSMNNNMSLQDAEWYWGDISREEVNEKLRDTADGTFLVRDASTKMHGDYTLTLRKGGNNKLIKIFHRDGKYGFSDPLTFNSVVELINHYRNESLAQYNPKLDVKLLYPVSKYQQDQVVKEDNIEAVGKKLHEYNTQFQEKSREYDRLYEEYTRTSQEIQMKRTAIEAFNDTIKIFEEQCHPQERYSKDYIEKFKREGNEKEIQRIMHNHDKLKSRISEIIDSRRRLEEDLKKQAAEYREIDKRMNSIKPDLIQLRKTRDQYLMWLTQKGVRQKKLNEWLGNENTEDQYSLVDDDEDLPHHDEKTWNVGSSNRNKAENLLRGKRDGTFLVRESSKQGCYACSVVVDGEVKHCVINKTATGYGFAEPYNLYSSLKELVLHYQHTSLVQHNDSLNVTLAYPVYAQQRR

In turn, `Nc1ncc(-c2cc(N3C(=O)O[C@@H](c4ccccc4)[C@@H]3CO)nc(N3CCOCC3)n2)c(C(F)(F)F)n1` [Example 10] displayed a Rat1-PI3Ka/IC50 of 0.085 umol I-1.

The values above are taken from patent US10202371B2, “Oxazolidin-2-one-pyrimidine derivatives and the use thereof as phosphatidylinositol-3-kinase inhibitors” (Novartis AG, priority 2012, dated 2019).
